Experimental findings from ChEMBL document CHEMBL1806399, “Synthesis and SAR of new pyrazolo[4,3-h]quinazoline-3-carboxamide derivatives as potent and selective MPS1 kinase inhibitors” (Bioorg Med Chem Lett, 2011) are described below.

The target of series [1] is Serine/threonine-protein kinase PLK1 (Homo sapiens, UniProt P53350). In words: Inhibition of PLK1 assessed as [33P]-gamma-ATP incorporation into substrate by gamma counting.
The subject of series [2] is A2780. Nature of the series: Antiproliferative activity in human A2780 cells after 72 hrs by CellTiter-Glo assay. It is filed as functional, cell-based. The conditions noted are these: A2780, 72 h.
A short description of series [3]: Solubility of the compound at pH 7. It is filed as physicochemical. The conditions noted are these: buffer.
For series [4], the system named is U2OS. Nature of the series: Inhibition of mitosis in human U2OS cells assessed as histone H3 phosphorylation at Ser 10 residue after 2 hrs by immunoassay. It is filed as functional, cell-based.
The subject of series [5] is Mus musculus. In words: Antitumor activity against human A2780 cells xenografted in mouse assessed as tumor growth inhibition at 90 mg/kg, po for seven consecutive days. The series is classed as functional. The conditions noted are these: read-out: GI.
Series [6] deals with Mus musculus. Nature of the series: Toxicity in mouse assessed as body weight loss at 90 mg/kg, po for seven consecutive days. It is filed as organism-based. Also on record: dose 90 mg/kg, route oral. The conditions noted are these: in vivo.

In brackets after ≈: the same amount, converted by molar mass.

Serine/threonine-protein kinase PLK1, sequence (P53350 whole entry): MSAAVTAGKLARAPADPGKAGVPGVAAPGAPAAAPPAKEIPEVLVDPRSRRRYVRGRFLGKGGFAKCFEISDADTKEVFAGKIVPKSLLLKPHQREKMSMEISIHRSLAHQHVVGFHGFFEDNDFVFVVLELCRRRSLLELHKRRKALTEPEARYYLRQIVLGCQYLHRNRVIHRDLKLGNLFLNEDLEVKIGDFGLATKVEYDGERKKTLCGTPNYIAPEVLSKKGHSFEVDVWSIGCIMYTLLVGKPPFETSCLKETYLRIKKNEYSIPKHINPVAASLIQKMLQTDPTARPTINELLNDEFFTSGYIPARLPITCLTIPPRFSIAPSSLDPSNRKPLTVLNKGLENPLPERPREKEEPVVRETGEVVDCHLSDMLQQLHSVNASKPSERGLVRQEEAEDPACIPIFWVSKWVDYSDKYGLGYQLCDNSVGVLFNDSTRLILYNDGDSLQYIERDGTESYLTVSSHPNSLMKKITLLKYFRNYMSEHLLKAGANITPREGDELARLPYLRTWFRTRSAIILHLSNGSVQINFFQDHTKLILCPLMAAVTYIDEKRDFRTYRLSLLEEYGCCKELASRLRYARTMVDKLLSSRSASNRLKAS

For the compound `CCc1cccc(CC)c1NC(=O)c1nn(C)c2c1CCc1cnc(Nc3ccc(C(=O)NC4CCN(C)CC4)cc3OC(F)(F)F)nc1-2`, the concentration for half-maximal inhibition (IC50) in series [1] is above 10 µM; in series [2] it was 1 µM; in series [4], 0.032 µM. The compound further yielded a solubility in series [3] of 45 µM (≈ 30.5 µg/mL). For the same compound, the inhibition in vivo at 90 mg/kg in series [5] is 53%. Besides, the Activity entry in series [6] was “Non-toxic”.
